Results from US9399626B2, “2-thiopyrimidinones” (Pfizer Inc., priority 2011, dated 2016).
Structures can show the parent of a compound that is named as a salt.

Target: T1, MPO (purified from human polynuclear leukocytes) (Homo sapiens, UniProt P05164)
T1 construct: purified from human polynuclear leukocytes; purchased Calbiochem/EMD Biosciences; host or cells: human polynuclear leukocytes (natural source)
Assay: MPO Amplex Red Activity Assay
Format: biochemical
Conditions: Table 1, 2 μM H2O2, pH 7.4
Description: MPO Amplex Red Activity Assay.
MPO peroxidase activity was measured by monitoring the formation of resorufin generated from the oxidation of Amplex Red (10-Acetyl-3,7-dihydroxyphenoxazine) (Invitrogen, Carlsbad, Calif.) by MPO (Gomes, Fernandes et al. 2005). Assay mixtures (100 μL total volume) contained 50 mM NaPi pH 7.4, 150 mM NaCl, 1 mM DTPA (diethylenetriaminepentaacetic acid), 2% DMSO, 2 μM H2O2, 30 μM Amplex Red and the reaction was initiated by the addition of […] (purified from human polynuclear leukocytes and purchased from Calbiochem/EMD Biosciences, Gibbstown, N.J.). All assays were performed in 96-well, half-area, black, nonbinding surface, polystyrene plates (Corning) and the production of resorufin (excitation 530 nm, emission 580 nm) was monitored every 20 sec on a Spectramax M2 Microplate Spectrophotometer (Molecular Devices, Palo Alto, Calif.) equipped with Softmax Pro software (Molecular Devices, Palo Alto, Calif.). Reactions to determine the background reaction rate consisted of all assay components and 4 μL of 500 unit/mL bovine catalase (Sigma) in 50 mM KPi pH 7.0. The background rate was subtracted from each reaction progress curve. All data was analyzed using non-linear regression analysis in Microsoft Excel and Kaleidagraph (Synergy Software).
To determine inhibitor potency (kinact/KI) against MPO, the first 600 sec of the reaction progress curves were fit to equation 1, where Vo is the initial rate in RFU/sec and t is time in seconds, to obtain the first order rate constant for enzyme inactivation (kobs) at each inhibitor concentration.
[formula] Equation 1 is a variation of the standard equation for slow binding inhibition where the steady state velocity (Vs) is set to zero. Each kobs value was corrected for auto-inactivation of the enzyme by subtracting the kobs value for the uninhibited reaction. The corrected kobs values were then plotted versus inhibitor concentration ([I]) and fit to equation 2
[formula] where kinact is the maximal rate of inactivation and KI is the inhibitor concentration that yields half the rate of maximal inactivation (Copeland 2005).
Table 1 and (1A) below provides the myeloperoxidase inhibitory activity for the Examples below in accordance with the above-described assay.

T1 sequence (P05164 279-745 limits assumed): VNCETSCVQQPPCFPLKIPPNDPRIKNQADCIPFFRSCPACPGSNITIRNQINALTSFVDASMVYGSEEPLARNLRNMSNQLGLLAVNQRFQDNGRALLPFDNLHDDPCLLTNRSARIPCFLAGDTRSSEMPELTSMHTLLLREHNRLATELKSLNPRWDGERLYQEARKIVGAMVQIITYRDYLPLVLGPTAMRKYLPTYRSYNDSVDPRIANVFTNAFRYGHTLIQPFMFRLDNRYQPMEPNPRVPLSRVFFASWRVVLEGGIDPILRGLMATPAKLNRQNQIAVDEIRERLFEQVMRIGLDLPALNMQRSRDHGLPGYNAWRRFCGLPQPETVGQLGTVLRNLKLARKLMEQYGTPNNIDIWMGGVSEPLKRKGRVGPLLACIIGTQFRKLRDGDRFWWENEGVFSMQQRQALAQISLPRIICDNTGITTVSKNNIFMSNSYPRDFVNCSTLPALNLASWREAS
T1 sequence (P05164 165-273 limits assumed): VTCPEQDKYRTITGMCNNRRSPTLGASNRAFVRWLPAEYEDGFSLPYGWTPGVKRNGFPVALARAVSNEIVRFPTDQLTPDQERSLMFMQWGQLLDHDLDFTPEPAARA

Row | MPO kinact/Ki | SMILES
1 | 6880 1/s per M | COc1ccccc1-c1cc(=O)[nH]c(=S)n1CCN [Example 11, 1-(2-aminoethyl)-6-(2-methoxyphenyl)-2-thioxo-2,3-dihydropyrimidin-4(1H)-one hydrochloride]
2 | 5010 1/s per M | COc1ccc(-c2cc(=O)[nH]c(=S)n2CCO)cc1 [Example 12, 1-(2-hydroxyethyl)-6-(4-methoxyphenyl)-2-thioxo-2,3-dihydropyrimidin-4(1H)-one]
3 | 5310 1/s per M | NCCn1c(-c2ccc3c(c2)CCO3)cc(=O)[nH]c1=S [Example 14, 1-(2-aminoethyl)-6-(2,3-dihydro-1-benzofuran-5-yl)-2-thioxo-2,3-dihydropyrimidin-4(1H)-one hydrochloride]
4 | 6510 1/s per M | O=c1cc(-c2cccc3c2OCC3)n(CCO)c(=S)[nH]1 [Example 16, 6-(2,3-dihydro-1-benzofuran-7-yl)-1-(2-hydroxyethyl)-2-thioxo-2,3-dihydropyrimidin-4(1H)-one]
5 | 8280 1/s per M | COc1ccccc1-c1cc(=O)[nH]c(=S)n1CCCN [Example 18, 1-(3-aminopropyl)-6-(2-methoxyphenyl)-2-thioxo-2,3-dihydropyrimidin-4(1H)-one hydrochloride]
6 | 1960 1/s per M | COc1ncc(C)cc1-c1cc(=O)[nH]c(=S)n1CCN [Example 19, 1-(2-aminoethyl)-6-(2-methoxy-5-methylpyridin-3-yl)-2-thioxo-2(3-dihydropyrimidin-4(1H)-one trifluoroacetate]
7 | 4530 1/s per M | COc1nc(C)ccc1-c1cc(=O)[nH]c(=S)n1CCO [Example 21, 1-(2-hydroxyethyl)-6-(2-methoxy-6-methylpyridin-3-yl)-2-thioxo-2,3-dihydropyrimidin-4(1H)-one]
8 | 7640 1/s per M | CSc1ccccc1-c1cc(=O)[nH]c(=S)n1CCO [Example 24, 1-(2-hydroxyethyl)-6-[2-(methylthio)phenyl]-2-thioxo-2,3-dihydropyrimidin-4(1H)-one]
9 | 9210 1/s per M | COc1cc(F)ccc1-c1cc(=O)[nH]c(=S)n1CCN [Example 25, 1-(2-aminoethyl)-6-(4-fluoro-2-methoxyphenyl)-2-thioxo-2,3-dihydropyrimidin-4(1H)-one hydrochloride]
10 | 3180 1/s per M | COc1ccc(F)cc1-c1cc(=O)[nH]c(=S)n1CCN.Cl [Example 26, 1-(2-aminoethyl)-6-(5-fluoro-2-methoxyphenyl)-2-thioxo-2,3-dihydropyrimidin-4(1H)-one hydrochloride]
11 | 15800 1/s per M | COc1cc(F)ccc1-c1cc(=O)[nH]c(=S)n1CCO [Example 27, 6-(4-fluoro-2-methoxyphenyl)-1-(2-hydroxyethyl)-2-thioxo-2,3-dihydropyrimidin-4(1H)-one]
12 | 13700 1/s per M | COc1ccc(F)cc1-c1cc(=O)[nH]c(=S)n1CCO [Example 28, 6-(5-fluoro-2-methoxyphenyl)-1-(2-hydroxyethyl)-2-thioxo-2,3-dihydropyrimidin-4(1H)-one]
13 | 14900 1/s per M | NC(=O)Cn1c(-c2cccc3[nH]ccc23)cc(=O)[nH]c1=S [Example 29, 2-[6-(1H-indol-4-yl)-4-oxo-2-thioxo-3,4-dihydropyrimidin-1(2H)-yl]acetamide]
14 | 5870 1/s per M | NCCCn1c(-c2cccc3[nH]ccc23)cc(=O)[nH]c1=S [Example 30, 1-(3-aminopropyl)-6-(1H-indol-4-yl)-2-thioxo-2,3-dihydropyrimidin-4(1H)-one trifluoroacetate]
15 | 7680 1/s per M | NC(=O)Cn1c(-c2cccc3ccoc23)cc(=O)[nH]c1=S [Example 31, 2-[6-(1-benzofuran-7-yl)-4-oxo-2-thioxo-3,4-dihydropyrimidin-1(2H)-yl]acetamide]
16 | 2120 1/s per M | NCCCn1c(-c2n[nH]c3ccccc23)cc(=O)[nH]c1=S [Example 32, 1-(3-aminopropyl)-6-(1H-indazol-3-yl)-2-thioxo-2,3-dihydropyrimidin-4(1H)-one formate]
17 | 4520 1/s per M | COCCn1c(-c2c[nH]c3ccccc23)cc(=O)[nH]c1=S [Example 33, 6-(1H-indol-3-yl)-1-(2-methoxyethyl)-2-thioxo-2,3-dihydropyrimidin-4(1H)-one]
18 | 13100 1/s per M | NCCCn1c(-c2cccc3ccoc23)cc(=O)[nH]c1=S [Example 34, 1-(3-aminopropyl)-6-(1-benzofuran-7-yl)-2-thioxo-2,3-dihydropyrimidin-4(1H)-one hydrochloride]

Continued, compound first:

Row | SMILES | MPO kinact/Ki
19 | COc1ccc(Cl)cc1-c1cc(=O)[nH]c(=S)n1CC(N)=O [Example 1, 2-(6-(5-Chloro-2-methoxyphenyl)-4-oxo-2-thioxo-3,4-dihydropyrimidin-1(2H)-yl)acetamide] | 11600 1/s per M
20 | COc1ccc(OC)c(-c2cc(=O)[nH]c(=S)n2CC(N)=O)c1 [Example 2, 2-(6-(2,5-Dimethoxyphenyl)-4-oxo-2-thioxo-3,4-dihydropyrimidin-1(2H)-yl)acetamide] | 12500 1/s per M
21 | COc1ccc(-c2cc(=O)[nH]c(=S)n2CCO)c(OC)c1 [Example 3, 6-(2,4-Dimethoxyphenyl)-1-(2-hydroxyethyl)-2-thioxo-2,3-dihydropyrimidin-4(1H)-one] | 29300 1/s per M
22 | COc1ccc(-c2cc(=O)[nH]c(=S)n2CCO)c(OC)n1 [Example 4, 6-(2,6-Dimethoxypyridin-3-yl)-1-(2-hydroxyethyl)-2-thioxo-2,3-dihydropyrimidin-4(1H)-one] | 8790 1/s per M
23 | COc1ccc(-c2cc(=O)[nH]c(=S)n2CCNC(=O)OC(C)(C)C)c(OC)c1 [Example 5, tert-butyl 2-(6-(2,4-dimethoxyphenyl)-4-oxo-2-thioxo-3,4-dihydropyrimidin-1(2H)-yl)ethylcarbamate] | 1280 1/s per M
24 | COc1ccc(-c2cc(=O)[nH]c(=S)n2CCN)c(OC)c1 [Example 6, 1-(2-aminoethyl)-6-(2,4-dimethoxyphenyl)-2-thioxo-2,3-dihydropyrimidin-4(1H)-one hydrochloride] | 12900 1/s per M
25 | COc1ccc(-c2cc(=O)[nH]c(=S)n2CCN=C(N)N)c(OC)c1 [Example 7, 2-(2-(6-(2,4-dimethoxyphenyl)-4-oxo-2-thioxo-3,4-dihydropyrimidin-1(2H)-yl)ethyl)guanidine] | 10900 1/s per M
26 | COc1ccc(-c2cc(=O)[nH]c(=S)n2CCNC(=O)CN)c(OC)c1 [Example 8, 2-amino-N-(2-(6-(2,4-dimethoxyphenyl)-4-oxo-2-thioxo-3,4-dihydropyrimidin-1(2H)-yl)ethyl)acetamide hydrochloride] | 12100 1/s per M
27 | COCCn1c(-c2cc(OC)ccc2OC)cc(=O)[nH]c1=S [Example 9, 6-(2,5-dimethoxyphenyl)-1-(2-methoxyethyl)-2-thioxo-2,3-dihydropyrimidin-4(1H)-one] | 15000 1/s per M
28 | COCCn1c(-c2ccccn2)cc(=O)[nH]c1=S [Example 10, 1-(2-Methoxyethyl)-6-(pyridin-2-yl)-2-thioxo-2,3-dihydropyrimidin-4(1H)-one] | 619 1/s per M
29 | COCCn1c(-c2ccc(C#N)cc2)cc(=O)[nH]c1=S [Example 13, 4-[3-(2-methoxyethyl)-6-oxo-2-thioxo-1,2,3,6-tetrahydro-pyrimidin-4-yl]benzonitrile] | 745 1/s per M
30 | O=c1cc(-c2ccc3c(c2)CCO3)n(CCO)c(=S)[nH]1 [Example 15, 6-(2,3-dihydro-1-benzofuran-5-yl)-1-(2-hydroxyethyl)-2-thioxo-2,3-dihydropyrimidin-4(1H)-one] | 5420 1/s per M
31 | COc1ccccc1-c1cc(=O)[nH]c(=S)n1CC(N)=O [Example 17, 2-[6-(2-methoxyphenyl)-4-oxo-2-thioxo-3,4-dihydropyrimidin-1(2H)-yl]acetamide] | 4460 1/s per M
32 | COCCn1c(-c2ncccc2OC)cc(=O)[nH]c1=S [Example 20, 1-(2-methoxyethyl)-6-(3-methoxypyridin-2-yl)-2-thioxo-2,3-dihydropyrimidin-4(1H)-one] | 1330 1/s per M
33 | COc1ccc(C)nc1-c1cc(=O)[nH]c(=S)n1CCO [Example 22, 1-(2-hydroxyethyl)-6-(3-methoxy-6-methylpyridin-2-yl)-2-thioxo-2,3-dihydropyrimidin-4(1H)-one] | 6340 1/s per M
34 | COCCn1c(-c2cccnc2OC)cc(=O)[nH]c1=S [Example 23, 1-(2-methoxyethyl)-6-(2-methoxypyridin-3-yl)-2-thioxo-2,3-dihydropyrimidin-4(1H)-one] | 991 1/s per M
